Test results from PubChem BioAssay AID493130 (Broad Institute, 2011).
Records with an inconclusive call do not appear. Active and inactive are the calls of the source.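 How the source made its calls: active means signal-lowering compounds whose fitted half-maximal concentration is at most ten times their highest tested dose; inconclusive means flat fit between -30 and -70%, or poor fit; inactive means flat within 30%, signal rising, or potency beyond limit.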

Target: POS-1 (Caenorhabditis elegans) binding to mex-3 RNA
Assay: inhibitors of POS-1/mex-3 RNA binding, dose response, counter-screen for MEX-5 RNA-binding inhibitor project, biochemical, fluorescence polarization, cherry-picked samples, set 2 (AID 493130);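 further: POS-1 as maltose binding protein fusion made in E. coli with FITC RNA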
Conditions: POS-1/mex-3 RNA fluorescence polarization, 1 h; for activity change, negative = inhibition: at 10 µM (top of the series)

SMILES	activity change, negative = inhibition	AC50
CSc1nsc2nc(=O)c(/C=C3\C(C)=Nc4ccc(C)cc43)c(N)n12	inactive	
N=c1c(C(=O)NC2CCCC2)cc2c(=O)n3ccccc3nc2n1C1CCCC1	inactive	
CC1=CC2=C(OC1N(C)C)c1cccc3cccc(c13)C2=O (centres undefined)	inactive	
CCN1CC=C2C(C#N)=C(N)C(C#N)(C#N)[C@H](c3ccoc3)[C@H]2C1		6.73 µM
CC1=C(C(=O)OCc2ccccc2)C(c2cccc([N+](=O)[O-])c2)NC(=O)N1C (centres undefined)	inactive	
COc1cc2c3c(c1OC)-c1cc(O)ccc1CC3NCC2 (centres undefined)	inactive	
CC(C)CNC(=O)c1ccccc1Oc1ccccc1	inactive	
Cc1cccc2c(N=Nc3ccccc3)c(O)[nH]c12	inactive	
CC(C)c1ccc(N2C(=O)/C(=C/N(C)C)SC2=S)cc1	inactive	
COC(=O)/C=C1/S/C(=N/NC(=O)c2ccc(Cl)cc2Cl)NC1=O	inactive	
C#CCN1C(=O)S/C(=C\c2ccc(-c3ccc(Cl)c(C(=O)O)c3)o2)C1=O	inactive	
O=c1c2ccccc2nc(/C=C/c2ccc([N+](=O)[O-])cc2)n1CCCO	inactive	
CCOc1cc(/C=N/Nc2nc(=O)[nH]nc2C)ccc1O	inactive	
COc1cc(C=C2C(=O)c3ccccc3C2=O)cc(OC)c1OC	inactive	
Cc1ccc2oc(=O)c(/C=C(\O)c3ccco3)nc2c1	inactive	
CC/C(=N/Nc1cccc(C)c1)c1cnnc(SC)n1	inactive	
CCOC(=O)c1ccc(NC(=O)C(=O)NCc2ccc(/C=C(/C#N)C(=O)NCCOC)o2)cc1	inactive	
CC(=O)Nc1ccc(/C=C/c2nc(-c3ccccc3O)n[nH]2)cc1	inactive	
O=C(Nc1cccc2ncccc12)c1ccccc1[N+](=O)[O-]	inactive	
COc1ccc2c(c1)-c1ccccc1S(=O)(=O)N2C(C)=O	inactive	
COc1cccc(C2C=C(c3cccs3)Nc3ncnn32)c1OC (centres undefined)	inactive	
O=C(O)CSc1ncnc2nc[nH]c12	inactive	
CC1=NN(C(N)=S)C(=O)C1N=Nc1ccccc1C (centres undefined)	inactive	
COc1cc(/C=N/NC(=S)Nc2cccc(C(=O)O)c2)ccc1O	inactive	

SMILES	activity change, negative = inhibition	AC50
CCNC(=S)NNC(=O)c1ccccn1	inactive	
Oc1ccc(/C=N/Nc2ncnc3nc[nH]c23)cc1	inactive	
Cc1ccc(C(=O)N/C(=C\c2ccc(-c3ccc(Cl)cc3)o2)C(=O)NCCCN(C)C)cc1	inactive	
CN1CN(C)c2cccc3cccc1c23	inactive	
CCOc1ccccc1N=NC1C(=O)N(C(N)=S)N=C1C (centres undefined)	inactive	
O=c1nc2c(O)cccn2c2c1c(=O)[nH]c1ccccc12		2.46 µM
CN1CCc2c(sc(NC(=O)c3ccc(S(=O)(=O)N4CCCCCC4)cc3)c2C(N)=O)C1	inactive	
Brc1ccc(-c2cn3nc4c(nc3n2)CCCC4)cc1	inactive	
Cc1ccc(C(=O)N/C(=C\c2ccc(-c3ccc([N+](=O)[O-])cc3)o2)C(=O)NC2CCS(=O)(=O)C2)cc1 (centres undefined)	inactive	
Cc1c(O)ccc(-c2[nH]ncc2-c2nc3ccccc3s2)c1O	inactive	
O=C(/C=C(\O)c1ccccc1)C(=O)NNC(=O)c1ccccc1	inactive	
COC(=O)/C(C#N)=C/c1c(-c2ccccc2)nc2n1CCS2	inactive	
CC1CN(Cc2c(O)ccc3c2oc(=O)c2ccccc23)CC(C)O1 (centres undefined)	inactive	
O=C(NNS(=O)(=O)c1ccc(F)cc1)c1cnccn1	inactive	
C[C@H](O)CC1=C[C@H](O)[C@@H](C)OC1=O	inactive	
Cc1ccc(S(=O)(=O)N/N=C/c2ccc(O)c(O)c2)cc1[N+](=O)[O-]	inactive	
Cc1ccc(N=Nc2c(O)n(CN3CCOCC3)c3ccccc23)cc1	inactive	
Nc1ccc2nc3c(=O)n(CCc4ccccc4)c(=O)[nH]c3nc2c1		1.22 µM
O=C(NNC(=O)c1ccc([N+](=O)[O-])o1)c1ccccc1	inactive	
CCOc1ccc(/C=C2/C(=O)N(c3ccc(OC)cc3)C(=S)N2CC(=O)OC)cc1OCC	inactive	
Cc1ccc(N2C(=O)c3ccc(C(=O)O)cc3C2=O)cc1C	inactive	
CCOC(=O)C1C(=O)C=C(/C=C/c2ccc(N(C)C)cc2)CC1c1ccccc1 (centres undefined)	inactive	
CC(=O)Nc1ccc(/C=N/NC(=O)CNS(=O)(=O)c2ccccc2)cc1	inactive	
CC[N+](C)(CC)CCCOC(=O)C(O)(c1ccccc1)C1CCCCC1 (centres undefined)	inactive	

SMILES	activity change, negative = inhibition	AC50
COc1ccc(C[C@@H]2c3cc(O)c(OC)cc3CCN2C)cc1O	inactive	
COc1cccc(-c2cn3nc4c(nc3n2)CCCC4)c1	inactive	
N=c1c(C(=O)NCC2CCCO2)cc2c(=O)n3ccccc3nc2n1Cc1ccc(Cl)cc1 (centres undefined)	inactive	
CC(=O)O[C@@H]1[C@@H](O)[C@@H](O)[C@H](Oc2c(-c3ccc(O)cc3)oc3c(CC=C(C)C)c(O)cc(O)c3c2=O)O[C@H]1C	inactive	
COc1cc(/C=C2\CCCc3c2nc2ccccc2c3C(=O)O)cc(OC)c1O	inactive	
N#C/C(C(N)=O)=C1/CCc2ccccc2N1	inactive	
Cc1cccc(/C=N/NC(=O)Cn2nnnc2N)n1	inactive	
COc1c(OC2OC(C(=O)O)C(O)C(O)C2O)cc(O)c2c(=O)cc(-c3ccccc3)oc12 (centres undefined)	inactive	
CN(C)S(=O)(=O)c1ccc(Cl)c(C(=O)Nc2cccc3ncccc23)c1	inactive	
COc1cccc2cc(-c3nc(-c4cccs4)cs3)c(=O)oc12	inactive	
CCCc1cc(C(=O)Cc2ccc(C(=O)OCC)o2)c(O)cc1O	inactive	
CCOC(=O)NC(=O)/C(C#N)=C\Nc1sccc1C(=O)OC	inactive	
c1cncc(C2CC(c3cccs3)n3ncnc3N2)c1 (centres undefined)	inactive	
Nc1c(C(=O)Nc2ccccc2F)sc2nc(-c3cccnc3)ccc12	inactive	
Cc1cc(/C=C2\C(=O)NC(=O)N(Cc3ccccc3)C2=O)c(C)n1-c1ccc(Cl)c(C(=O)O)c1	inactive	
COc1ccccc1C(=O)Oc1ccc2c(c1)O/C(=C\c1ccncc1)C2=O		3.41 µM
N#C/C(=N\Nc1cccc(C(F)(F)F)c1)C(=O)c1ccsc1	inactive	
CN(CCC#N)C(=O)COC(=O)c1c2c(nc3ccccc13)/C(=C/c1ccco1)CC2		> 10 µM (inactive)
C#CCN1C(=O)S/C(=C\c2cc3c(cc2OC)OCO3)C1=O		8.97 µM
CC1(N2CCOCC2)CC2(O)C(=[N+]1[O-])CCc1c2no[n+]1[O-] (centres undefined)	inactive	
Cc1ccc(Nc2nc(-c3ccc(C)cc3)c(CC(=O)O)s2)cc1	inactive	
COc1ccc(-n2c(C)nc3cc(C(=O)O)ccc32)cc1	inactive	
Cc1ccc(C(=O)NNC(=O)c2ccc3ccccc3c2O)cc1		7.78 µM
CCOc1c(O)ccc(/C=C2\SC(=S)NC2=O)c1[N+](=O)[O-]	inactive	

SMILES	activity change, negative = inhibition	AC50
CCCCN(CCCC)CCNC(=O)CNC(=O)c1cccs1	inactive	
CN1/C(=C\C=C(/C#N)C(=O)Nc2ccccc2F)C(C)(C)c2ccccc21	inactive	
CC1=C(C(=O)OCc2ccccc2)C(c2ccc(N(C)C)cc2)NC(=O)N1 (centres undefined)	inactive	
O=c1[nH]cnc2c1C(c1ccccc1)c1c(nc[nH]c1=O)O2	inactive	
CCc1nnc(NS(=O)(=O)c2ccc(N=Cc3c(O)n(-c4ccc(Cl)cc4)c(=O)[nH]c3=O)cc2)s1	inactive	
COCC1CCN(Cc2c(C(=O)N3CCN(C4CCCCC4)CC3)nc3ccccn23)C1 (centres undefined)	inactive	
O=C(NNc1ncnc2c1cnn2-c1ccc(F)cc1)c1ccco1	inactive	
CSCCCN1CCC(n2nccc2NC(=O)CCCc2ccccc2)CC1	inactive	
O=C(O)c1cc(Oc2ccc(C(F)(F)F)cc2Cl)ccc1[N+](=O)[O-]	inactive	
O=c1[nH]n2c(=O)c3c([nH]c2c1N=Nc1ccccc1)CCC3		0.677 µM
CN1CC=C2C(C#N)=C(N)C(C#N)(C#N)[C@H](c3ccoc3)[C@H]2C1		5.4 µM
Cc1ccc(C(=O)/C=C/c2ccccc2[N+](=O)[O-])cc1	inactive	
O=C1CSC(=S)N1/N=C/c1cc(Br)c(O)c(Br)c1		10.2 µM
Cc1cc(/C=C2\C(=O)NC(=O)N(c3cccc(F)c3)C2=O)c(C)n1-c1cc(C(=O)O)cc(C(=O)O)c1	inactive	
Cc1cccc(C(=O)NNC(=O)c2ccco2)c1O	inactive	
O=C(O)c1ccc(N2Cc3ccccc3C2)cc1O	inactive	
O=c1[nH]c(-[n+]2ccccc2)c(/C=N/NC([S-])=Nc2ccccc2)s1		5.9 µM
COC1=C(Nc2ccc(O)cc2)C(=O)c2ccccc2C1=O	inactive	
Cc1ccc(C(=O)N/N=C/c2ccc(-c3ccc(Br)cc3[N+](=O)[O-])o2)o1	inactive	
CC(=O)Nc1ccc2c(c1)C(=O)N(c1cccc(C)c1)C2=O	inactive	
CS(=O)(=O)c1ccccc1C(=O)Nc1cccc2ncccc12	inactive	
Nc1c(C(=O)Nc2ccccc2)sc2nc3c(c(-c4ccco4)c12)CCC3	inactive	
